Measurements from ChEMBL document CHEMBL3774322, “New orally active diphenylmethyl-based ester analogues of dihydroartemisinin: Synthesis and antimalarial assessment against multidrug-resistant Plasmodium yoelii nigeriensis in mice” (Bioorg Med Chem Lett, 2016).
The source made the active and inactive calls. No cut-off for these calls is given here.

Columns and labels:
[1] = tested on: Plasmodium yoelii nigeriensis; experiment: Antimalarial activity against blood stage multidrug-resistant Plasmodium yoelii nigeriensis infected swiss mouse assessed as suppression of parasitaemia at 12 mg/kg, po administered once daily for 3 days measured on day 4 by microscopic analysis relative to control; assay type: functional
[2] = tested on: Plasmodium yoelii nigeriensis; experiment: Antimalarial activity against blood stage multidrug-resistant Plasmodium yoelii nigeriensis infected swiss mouse assessed as suppression of parasitaemia at 48 mg/kg, po administered once daily for 3 days measured on day 4 by microscopic analysis relative to control; assay type: functional
[3] = Lipophilicity, logP of compound; assay type: physicochemical; conditions: octanol/water
[4] = tested on: Plasmodium yoelii nigeriensis; experiment: Antimalarial activity against blood stage multidrug-resistant Plasmodium yoelii nigeriensis infected swiss mouse assessed as suppression of parasitaemia at 24 mg/kg, po administered once daily for 3 days measured on day 4 by microscopic analysis relative to control; assay type: functional
[5] = tested on: Plasmodium yoelii nigeriensis; experiment: Antimalarial activity against blood stage multidrug-resistant Plasmodium yoelii nigeriensis infected swiss mouse assessed as protection […] at 24 mg/kg, po administered once daily for 3 days measured on day 4 and subsequently twice a week up to 28 days by microscopy; assay type: functional
[6] = tested on: Plasmodium yoelii nigeriensis; experiment: Antimalarial activity against blood stage multidrug-resistant Plasmodium yoelii nigeriensis infected swiss mouse assessed as protection […] at 24 mg/kg, po administered once daily for 3 days measured after 28 days by microscopy; assay type: functional, organism-based
[7] = tested on: Plasmodium yoelii nigeriensis; experiment: (§1) Antimalarial activity against blood stage multidrug-resistant Plasmodium yoelii nigeriensis infected swiss mouse assessed as protection against Plasmodium yoelii nigeriensis infection at 48 mg/kg, po administered once daily for 3 days measured on day 4 and subsequently twice a week up to 28 days by microscopy; assay type: functional
[8] = tested on: Plasmodium yoelii nigeriensis; experiment: Antimalarial activity against blood stage multidrug-resistant Plasmodium yoelii nigeriensis infected swiss mouse assessed as protection against Plasmodium yoelii nigeriensis infection at 12 mg/kg, po administered once daily for 3 days measured after 28 days by microscopy; assay type: functional, organism-based
[9] = tested on: Plasmodium yoelii nigeriensis; experiment: as §1, with “12” for “48”; assay type: functional
[10] = tested on: Plasmodium yoelii nigeriensis; experiment: Antimalarial activity against blood stage multidrug-resistant Plasmodium yoelii nigeriensis infected swiss mouse assessed as protection against […] infection at 6 mg/kg, po administered once daily for 3 days measured on day 4 and subsequently twice a week up to 28 days by microscopy; assay type: functional, organism-based
[11] = tested on: Plasmodium yoelii nigeriensis; experiment: Antimalarial activity against blood stage multidrug-resistant Plasmodium yoelii nigeriensis infected swiss mouse assessed as suppression of parasitaemia at 6 mg/kg, po administered once daily for 3 days measured on day 4 by microscopic analysis relative to control; assay type: functional
[12] = tested on: Plasmodium yoelii nigeriensis; experiment: Antimalarial activity against blood stage multidrug-resistant Plasmodium yoelii nigeriensis infected swiss mouse assessed as protection against […] infection at 6 mg/kg, po administered once daily for 3 days measured after 28 days by microscopy; assay type: functional, organism-based

| Structure (SMILES) | inhibition in vivo at 12 mg/kg [1] [%] | inhibition in vivo at 48 mg/kg [2] [%] | logP [3] | inhibition in vivo at 24 mg/kg [4] [%] | Activity [5] | Activity [6] | Activity [7] [%] | Activity [8] | Activity [9] | Activity [10] | inhibition in vivo at 6 mg/kg [11] [%] | Activity [12] |
| --- | --- | --- | --- | --- | --- | --- | --- | --- | --- | --- | --- | --- |
| C[C@H]1[C@H](OC(=O)CC(c2ccc(Br)cc2)c2ccc(Br)cc2)O[C@@H]2O[C@@]3(C)CC[C@H]4[C@H](C)CC[C@@H]1[C@@]24OO3 | 100 | 100 | 8.81 | 100 | 100% | inactive | 100 | inactive | inactive |  |  |  |
| C[C@H]1[C@H](OC(=O)C(c2ccccc2)c2ccccc2)O[C@@H]2O[C@@]3(C)CC[C@H]4[C@H](C)CC[C@@H]1[C@@]24OO3 | 100 | 100 | 6.97 | 100 | 100% |  | 100 |  | 100% | inactive | 100 | inactive |
| CCCCCCC(=O)O[C@@H]1O[C@@H]2O[C@@]3(C)CC[C@H]4[C@H](C)CC[C@@H]([C@H]1C)[C@@]24OO3 |  | 100 | 5.7 | 100 |  |  | 100 |  |  |  |  |  |
| C[C@H]1[C@H](OC(=O)CC(c2ccccc2)c2ccccc2)O[C@@H]2O[C@@]3(C)CC[C@H]4[C@H](C)CC[C@@H]1[C@@]24OO3 | 100 | 100 | 7.15 | 100 | 100% | inactive | 100 | inactive | inactive |  |  |  |
| CC(=O)O[C@@H]1O[C@@H]2O[C@@]3(C)CC[C@H]4[C@H](C)CC[C@@H]([C@H]1C)[C@@]24OO3 |  | 100 | 3.37 | 99 | inactive |  |  |  |  |  |  |  |
| C[C@H]1[C@H](OC(=O)CC(c2ccc(Cl)cc2)c2ccc(Cl)cc2)O[C@@H]2O[C@@]3(C)CC[C@H]4[C@H](C)CC[C@@H]1[C@@]24OO3 | 96 | 100 | 8.27 | 100 | 100% | inactive | 100 | inactive | inactive |  |  |  |
| C[C@H]1[C@H](OC(=O)CC(c2ccc(F)cc2)c2ccc(F)cc2)O[C@@H]2O[C@@]3(C)CC[C@H]4[C@H](C)CC[C@@H]1[C@@]24OO3 | 100 | 100 | 7.47 | 100 | 100% |  | 100 |  | 80% | inactive | 100 | inactive |
| CCCCCC(=O)O[C@@H]1O[C@@H]2O[C@@]3(C)CC[C@H]4[C@H](C)CC[C@@H]([C@H]1C)[C@@]24OO3 |  | 100 | 5.28 | 100 | inactive |  | 100 |  |  |  |  |  |
| COc1ccc(C(CC(=O)O[C@@H]2O[C@@H]3O[C@@]4(C)CC[C@H]5[C@H](C)CC[C@@H]([C@H]2C)[C@@]35OO4)c2ccc(OC)cc2)cc1 | 100 | 100 | 6.9 | 100 | 100% |  | 100 |  | 80% | inactive | 100 | inactive |
| C[C@H]1[C@H](OC(=O)CCc2ccccc2)O[C@@H]2O[C@@]3(C)CC[C@H]4[C@H](C)CC[C@@H]1[C@@]24OO3 |  | 100 | 5.63 | 100 |  |  | 100 |  |  |  |  |  |
